Experimental findings from ChEMBL document CHEMBL4184166 (Bioorg Med Chem Lett, 2017) are described below.

The target of one data set is T1, CYP1A1 (Homo sapiens, UniProt P04798).
T1 sequence (P04798 whole entry): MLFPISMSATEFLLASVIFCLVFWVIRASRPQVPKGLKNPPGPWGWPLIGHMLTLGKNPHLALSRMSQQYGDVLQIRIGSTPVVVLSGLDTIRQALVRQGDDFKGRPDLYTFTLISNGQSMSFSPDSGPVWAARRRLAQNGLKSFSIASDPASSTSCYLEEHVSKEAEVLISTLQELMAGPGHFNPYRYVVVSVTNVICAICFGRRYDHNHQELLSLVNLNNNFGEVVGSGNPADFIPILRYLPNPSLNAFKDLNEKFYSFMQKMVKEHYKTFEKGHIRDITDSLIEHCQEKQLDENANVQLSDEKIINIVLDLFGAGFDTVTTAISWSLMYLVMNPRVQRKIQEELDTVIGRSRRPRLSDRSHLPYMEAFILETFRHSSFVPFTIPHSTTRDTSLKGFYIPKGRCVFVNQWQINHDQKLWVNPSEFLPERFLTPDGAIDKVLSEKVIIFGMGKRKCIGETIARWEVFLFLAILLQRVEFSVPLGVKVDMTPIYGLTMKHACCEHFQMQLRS
Put plainly: Inhibition of recombinant human CYP1A1 expressed in yeast microsomal membranes at 10 uM by fluorescence assay relative to control. The format is cell membranes.

The target of the next data set is T2, CYP1B1 (Homo sapiens, UniProt Q16678).
T2 sequence (Q16678 whole entry): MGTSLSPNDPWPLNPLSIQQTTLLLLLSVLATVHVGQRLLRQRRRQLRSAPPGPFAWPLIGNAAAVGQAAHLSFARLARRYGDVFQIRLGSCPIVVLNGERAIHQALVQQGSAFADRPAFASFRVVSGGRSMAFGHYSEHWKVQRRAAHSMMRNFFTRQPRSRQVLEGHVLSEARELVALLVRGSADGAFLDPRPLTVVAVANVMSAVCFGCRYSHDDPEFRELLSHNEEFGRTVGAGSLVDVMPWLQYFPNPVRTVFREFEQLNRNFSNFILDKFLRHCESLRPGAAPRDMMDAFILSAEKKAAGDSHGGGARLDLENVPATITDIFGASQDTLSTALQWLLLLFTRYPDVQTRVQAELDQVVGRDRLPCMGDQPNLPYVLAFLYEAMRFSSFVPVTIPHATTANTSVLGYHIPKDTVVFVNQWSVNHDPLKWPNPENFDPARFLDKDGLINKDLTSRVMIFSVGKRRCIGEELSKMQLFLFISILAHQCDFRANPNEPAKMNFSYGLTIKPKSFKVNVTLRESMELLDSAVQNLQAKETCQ
Put plainly: Inhibition of human CYP1B1 expressed in yeast microsomal membranes at 10 uM using 7-ethoxyresorufin as substrate by fluorescence assay relative to control. The format is cell membranes. The note with it: probe 7-ethoxyresorufin.

In data set [1] the target is T3, Cytochrome P450 2D6 (Homo sapiens, UniProt P10635). The experiment in a line: Inhibition of recombinant human CYP2D6 expressed in yeast microsomal membranes by fluorescence assay. In kind it is ADME, cell membranes, Microsomal Membrane.
In data set [2] the target is T4, Cytochrome P450 1B1 (Homo sapiens, UniProt Q16678).
T4 sequence (Q16678 whole entry): T2 sequence (Q16678 whole entry)
The experiment in a line: Inhibition of human CYP1B1 expressed in HEK293 cells by fluorescence assay. The format is cell-based.

Data set [3] deals with T5, Cytochrome P450 1A1 (Homo sapiens, UniProt P04798).
T5 sequence (P04798 whole entry): T1 sequence (P04798 whole entry)
Put plainly: Inhibition of recombinant human CYP1A1 expressed in yeast microsomal membranes by fluorescence assay. In kind it is cell membranes.

For data set [4], the target named is T6, Cytochrome P450 3A4 (Homo sapiens, UniProt P08684). The experiment in a line: Inhibition of human CYP3A4 expressed in HEK293 cells by fluorescence assay. The format is ADME, cell-based.
Data set [5] deals with T6, Cytochrome P450 3A4. Put plainly: Inhibition of recombinant human CYP3A4 expressed in yeast microsomal membranes by fluorescence assay. The format is ADME, cell membranes, Microsomal Membrane.
Data set [6] concerns the target T7, Cytochrome P450 1A2 (Homo sapiens, UniProt P05177).
T7 sequence (P05177 whole entry): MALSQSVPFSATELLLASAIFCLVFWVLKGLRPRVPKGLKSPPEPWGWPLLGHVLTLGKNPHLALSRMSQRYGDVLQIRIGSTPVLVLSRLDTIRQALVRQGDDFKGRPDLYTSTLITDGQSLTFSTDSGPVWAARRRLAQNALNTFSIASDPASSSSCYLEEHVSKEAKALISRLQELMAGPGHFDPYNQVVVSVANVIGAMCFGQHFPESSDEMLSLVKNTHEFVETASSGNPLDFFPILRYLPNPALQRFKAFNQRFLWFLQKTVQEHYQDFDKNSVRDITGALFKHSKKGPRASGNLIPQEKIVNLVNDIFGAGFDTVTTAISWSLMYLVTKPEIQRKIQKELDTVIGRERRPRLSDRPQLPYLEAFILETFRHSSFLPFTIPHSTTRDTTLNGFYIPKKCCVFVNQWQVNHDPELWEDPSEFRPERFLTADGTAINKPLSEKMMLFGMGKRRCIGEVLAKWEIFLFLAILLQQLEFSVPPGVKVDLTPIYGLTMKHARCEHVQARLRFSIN
The experiment in a line: Inhibition of human CYP1A2 expressed in HEK293 cells by fluorescence assay. In kind it is ADME, cell-based.

Data set [7] addresses T5, Cytochrome P450 1A1. Put plainly: Inhibition of human CYP1A expressed in HEK293 cells by fluorescence assay. The format is ADME, cell-based.
The target in data set [8] is T7, Cytochrome P450 1A2. The experiment in a line: Inhibition of recombinant human CYP1A2 expressed in yeast microsomal membranes by fluorescence assay. In kind it is ADME, cell membranes, Microsomal Membrane.
In data set [9] the target is T3, Cytochrome P450 2D6. Put plainly: Inhibition of human CYP2D6 expressed in HEK293 cells by fluorescence assay. In kind it is ADME, cell-based.
The target in data set [10] is T4, Cytochrome P450 1B1. The experiment in a line: Inhibition of human CYP1B1 expressed in yeast microsomal membranes using 7-ethoxyresorufin as substrate by fluorescence assay. The format is cell membranes.

Each structure is given as a SMILES string.

T3 sequence (P10635 whole entry): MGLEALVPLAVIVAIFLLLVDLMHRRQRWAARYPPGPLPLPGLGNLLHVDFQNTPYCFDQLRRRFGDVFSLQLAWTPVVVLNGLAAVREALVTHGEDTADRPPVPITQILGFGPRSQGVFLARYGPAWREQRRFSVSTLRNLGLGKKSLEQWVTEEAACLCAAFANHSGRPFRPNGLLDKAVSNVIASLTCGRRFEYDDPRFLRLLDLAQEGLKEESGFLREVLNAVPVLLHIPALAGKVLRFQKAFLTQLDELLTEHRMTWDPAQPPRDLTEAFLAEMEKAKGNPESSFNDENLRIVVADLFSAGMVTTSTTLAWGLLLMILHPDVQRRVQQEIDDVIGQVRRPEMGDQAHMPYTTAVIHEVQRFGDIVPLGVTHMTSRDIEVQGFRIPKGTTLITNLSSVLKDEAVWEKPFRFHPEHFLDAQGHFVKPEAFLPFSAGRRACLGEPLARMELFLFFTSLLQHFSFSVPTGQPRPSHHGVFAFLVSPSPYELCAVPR
T6 sequence (P08684 whole entry): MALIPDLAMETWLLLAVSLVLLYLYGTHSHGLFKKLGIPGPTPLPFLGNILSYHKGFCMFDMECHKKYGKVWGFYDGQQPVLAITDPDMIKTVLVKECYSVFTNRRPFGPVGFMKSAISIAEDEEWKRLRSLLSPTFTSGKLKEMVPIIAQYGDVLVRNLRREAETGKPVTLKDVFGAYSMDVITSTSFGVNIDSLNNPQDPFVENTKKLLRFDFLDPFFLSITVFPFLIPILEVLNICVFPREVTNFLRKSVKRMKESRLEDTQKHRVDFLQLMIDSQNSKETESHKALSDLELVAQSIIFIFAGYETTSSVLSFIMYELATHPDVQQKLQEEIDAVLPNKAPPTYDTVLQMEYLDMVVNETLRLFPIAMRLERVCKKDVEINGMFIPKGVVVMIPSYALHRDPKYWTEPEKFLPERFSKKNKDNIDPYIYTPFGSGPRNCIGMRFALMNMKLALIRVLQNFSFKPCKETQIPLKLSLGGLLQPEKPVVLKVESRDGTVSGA

As a reminder, the inhibition is the relative decrease from the control value, in per cent. On to `CC1(C)C=Cc2c(ccc3c2OC[C@@H](c2ccc(O)cc2O)C3)O1` [GLABRIDIN], for which the inhibition at 10 µM at CYP1A1 was found to be 36.8%; on CYP1B1, 26.6%.
What is called IC50 is the concentration at which inhibition is half-maximal. On to `CC(C)=CCc1cc(C2CC(=O)c3ccc(O)c(CC=C(C)C)c3O2)ccc1O` (configuration not stated), for which the IC50 is over 20 µM on Cytochrome P450 2D6 [1]; 15 µM on Cytochrome P450 1B1 [2]; 17.6 µM at Cytochrome P450 1A1 [3]; over 20 µM on Cytochrome P450 3A4 [4]; over 20 µM at Cytochrome P450 3A4 [5]; over 20 µM against Cytochrome P450 1A2 [6]. Moreover, the IC50 at Cytochrome P450 1A1 [7], at Cytochrome P450 1A2 [8], at Cytochrome P450 2D6 [9] and at Cytochrome P450 1B1 [10] was over 20 µM throughout. The inhibition at 10 µM on CYP1A1 was found to be 67.2%; against CYP1B1, 17.7%.
Take `COc1ccc(C2COc3c(ccc4c3C=CC(C)(C)O4)C2)c(O)c1` (configuration not stated): the inhibition at 10 µM amounted to 29.6% at CYP1A1 and 12% against CYP1B1.
Taken in the same sequence, the figures for `COc1ccc2c(c1)OC1c3ccc(O)cc3OCC21` (configuration not stated) were 27.5% and 31.7%.
The corresponding values for `O=C(/C=C/c1ccc(O[C@H]2O[C@@H](CO)[C@H](O)[C@@H](O)[C@@H]2O[C@@H]2OC[C@](O)(CO)[C@H]2O)cc1)c1ccc(O)cc1O` are 11.4% and -9.5%.
The corresponding values for `CC1(C)[C@@H](O[C@H]2O[C@H](C(=O)O)[C@@H](O)[C@H](O)[C@H]2O[C@@H]2O[C@H](C(=O)O)[C@@H](O)[C@H](O)[C@H]2O)CC[C@]2(C)[C@H]3C(=O)C=C4[C@@H]5C[C@@](C)(C(=O)O)CC[C@]5(C)CC[C@@]4(C)[C@]3(C)CC[C@@H]12` [GLYCYRRHIZIN] are 39% and 10.5%.
For the compound `O=C(/C=C/c1ccc(O)cc1)c1ccc(O)cc1O` [ISOLIQUIRITIGENIN], the inhibition at 10 µM at CYP1A1 is 22.3%; against CYP1B1, 3.1%.
As for `O=c1c(O)c(-c2ccc(O)c(O)c2)oc2cc(O)cc(O)c12` [QUERCETIN], the IC50 at Cytochrome P450 2D6 [1] and on Cytochrome P450 2D6 [9] was over 20 µM each time. Moreover, the inhibition at 10 µM at CYP1A1 was found to be 31.5%; against CYP1B1, 67.2%.
For the compound `O=c1cc(-c2ccccc2)oc2c1ccc1ccccc12` [ALPHA-NAPHTHOFLAVONE], the inhibition at 10 µM at CYP1A1 turned out to be 97%.
For the compound `O=C1C[C@@H](c2ccc(O)cc2)Oc2cc(O)ccc21` [LIQUIRTIGENIN], the values for the inhibition at 10 µM on CYP1A1 and against CYP1B1 were 19.2% and 38.2%, respectively.
For `CC(C)=CCc1cc(C2Oc3c(ccc(O)c3CC=C(C)C)C(=O)C2O)ccc1O` (configuration not stated), the inhibition at 10 µM at CYP1A1 stood at 31.4%; against CYP1B1, 7.5%.
As for `COc1ccc(-c2coc3cc(O)ccc3c2=O)cc1` [FORMONONETIN], the inhibition at 10 µM was 10.8% at CYP1A1 and -1.3% against CYP1B1.
Taken in the same sequence, the figures for `CC1(C)[C@@H](O)CC[C@]2(C)[C@H]3C(=O)C=C4[C@@H]5C[C@@](C)(C(=O)O)CC[C@]5(C)CC[C@@]4(C)[C@]3(C)CC[C@@H]12` [ENOXOLONE] were 11.4% and -2.1%.
